Patent US7863478B2, “UV filters” (Merck Patent GmbH, priority 2004, dated 2011)

Tests used:
[1] = UV absorption (UV-VIS spectra in 2-propanol, 1 mg/100 ml); format: physicochemical; parameters: UV absorbance at λmax (1 mg/100 ml): unit not given here; details: for UVB (280-320 nm) max. abs / UVB max. at λ [nm] / UVA (400-320 nm) max. abs / UVA max. at λ [nm]: solvent 2-Propanol, c 1 mg/100 ml; for UV-VIS λmax / UV absorbance at λmax (1 mg/100 ml): 1 mg/100 ml; for UV absorbance at λmax (1 mg/100 ml): value in brackets after λmax in the synthesis example
Protocol: FIG. 1: UV absorption spectra of 1-hydroxy-3-[(E)-3-(4-methoxyphenyl)-2-propenoyloxy]-2-oxopropane (Example 1a) and 1-hydroxy-3-(2-cyano-3,3-diphenylacryloyloxy)-2-oxopropane (Example 1b) (in each case measured in 2-propanol at a concentration of 1 mg/100 ml)
FIG. 2: UV absorption spectra of 3-[4-(3-hydroxy-2-oxopropoxymethyl)benzylidene]-4,7,7-trimethylbicyclo[2.2.1]heptan-2-one (Example 9), N-(2,3-dihydroxypropyl)-(E)-3-(4-methoxyphenyl)acrylamide (Example 10a) and N-(2,3-dihydroxypropyl)-N-methyl-(E)-3-(4-methoxyphenyl)acrylamide (Example 10b) (in each case measured in 2-propanol at a concentration of 1 mg/100 ml).

Structure (SMILES) | UVB (280-320 nm) max. abs [1] | UVB max. at λ [nm] [1] [nm] | further results
CC1(C)OCC(COc2ccc(C(=O)c3ccccc3)c(O)c2)O1 (stereo not drawn) | 0.473 | 286.1 | UVA (400-320 nm) max. abs [1]: 0.312; UVA max. at λ [nm] [1]: 328.3 nm
COC(CO)(COCc1ccc(/C=C2\C(=O)C3CCC2(C)C3(C)C)cc1)OC (stereo not drawn) [3-[4-(3-hydroxy-2,2-dimethoxypropoxymethyl)benzylidene]-4,7,7-trimethylbicyclo[2.2.1]heptan-2-one] | 0.615 | 298.0 | 
CC12CCC(C(=O)/C1=C\c1ccc(COCC(=O)CO)cc1)C2(C)C (stereo not drawn) [3-[4-(3-hydroxy-2-oxopropoxymethyl)benzylidene]-4,7,7-trimethylbicyclo[2.2.1]heptan-2-one] | 0.874 | 296 | 
CN(Cc1ccc(/C=C2\C(=O)C3CCC2(C)C3(C)C)cc1)CC(O)CO[Si](C)(C)C(C)(C)C (stereo not drawn) [3-[4-({[3-(tert-butyldimethylsilyloxy)-2-hydroxypropyl]-methylamino}methyl)benzylidene]-4,7,7-trimethylbicyclo[2.2.1]heptan-2-one] | 0.545 | 297 | 
COc1ccc(/C=C/C(=O)OCC(=O)CO)cc1 [Example 1a, 1-Hydroxy-3-[(E)-3-(4-methoxyphenyl)-2-propenoyloxy]-2-oxopropane] |  |  | UV-VIS λmax [1]: 301.0 nm; UV absorbance at λmax (1 mg/100 ml) [1]: 0.947; melting point: 172 to 174 °C
N#CC(C(=O)OCC(=O)CO)=C(c1ccccc1)c1ccccc1 [Example 1b, 1-Hydroxy-3-(2-cyano-3,3-diphenylacryloyloxy)-2-oxopropane] |  |  | UV-VIS λmax [1]: 303.0 nm; UV absorbance at λmax (1 mg/100 ml) [1]: 0.375; melting point: 204 °C (dec.)
CN(C)c1ccc(C(=O)OCC2COC(C)(C)O2)cc1 (stereo not drawn) [Example 4, 4-(4-Dimethylaminophenylcarbonyloxymethyl)-2,2-dimethyl-1,3-dioxolane] |  |  | UV-VIS λmax [1]: 310.0 nm; UV absorbance at λmax (1 mg/100 ml) [1]: 0.86
CN(C)c1ccc(C(=O)OCC(O)CO)cc1 (stereo not drawn) [Example 5, 2,3-Dihydroxypropyl 4-dimethylaminobenzoate] |  |  | UV-VIS λmax [1]: 310.0 nm; UV absorbance at λmax (1 mg/100 ml) [1]: 1.01
CN(C)c1ccc(C(=O)OCC(O)CO[Si](C)(C)C(C)(C)C)cc1 (stereo not drawn) [Example 6, 3-(tert-Butyldimethylsilyloxy)-2-hydroxypropyl 4-dimethylaminobenzoate] |  |  | UV-VIS λmax [1]: 310.0 nm; UV absorbance at λmax (1 mg/100 ml) [1]: 1.01
CCCCC(CC)COc1ccc(/C=C/C(=O)NCC(O)CO)cc1 (stereo not drawn) [Example 10c, N-(2,3-dihydroxypropyl)-(E)-[4-(2-ethylhexyloxyphenyl)]acrylamide] |  |  | UV-VIS λmax [1]: 307.0 nm; UV absorbance at λmax (1 mg/100 ml) [1]: 0.688
CN(C)c1ccc(C(=O)NCC(=O)CO[Si](C)(C)C(C)(C)C)cc1 [Example 19, N-[3-(tert-butyldimethylsilyloxy)-2-oxopropyl]-4-dimethylaminobenzamide] |  |  | UV-VIS λmax [1]: 312.0 nm; UV absorbance at λmax (1 mg/100 ml) [1]: 0.713
CN(C)c1ccc(C(=O)NCC(=O)CO)cc1 [Example 22, N-(3-hydroxy-2-oxopropyl)-4-dimethylaminobenzamide] |  |  | UV-VIS λmax [1]: 298.0 nm; UV absorbance at λmax (1 mg/100 ml) [1]: 0.575
N#CC(C(=O)OCC(=O)CO)=C(c1ccccc1)c1ccccc1 [drawing 77, 1-Hydroxy-3-(2-cyano-3,3-diphenylacryloyloxy)-2-oxopropane] | 0.375 | 303.0 | 
N#CC(C(=O)OCC(=O)COC(=O)C(C#N)=C(c1ccccc1)c1ccccc1)=C(c1ccccc1)c1ccccc1 [drawing 78, 1,3-Bis-(2-cyano-3,3-diphenylacryloyloxy)-2-oxopropane] | 0.031 | 304.0 | 
CN(C)c1ccc(C(=O)NCC(O)CO[Si](C)(C)C(C)(C)C)cc1 (stereo not drawn) [drawing 84, N-[3-(tert-butyldimethylsilyloxy)-2-hydroxypropyl]-4-dimethylaminobenzamide] | 0.64 | 301.0 | 
CN(C)c1ccc(C(=O)NCC(=O)CO)cc1 [drawing 85, N-(3-hydroxy-2-oxopropyl)-4-dimethylaminobenzamide] | 0.575 | 298.0 | 
CN(C)c1ccc(C(=O)NCC(=O)CO[Si](C)(C)C(C)(C)C)cc1 [drawing 86, N-[3-(tert-butyldimethylsilyloxy)-2-oxopropyl]-4-dimethylaminobenzamide] | 0.713 | 312.0 | 
COc1ccc(/C=C/C(=O)NCC(O)CO[Si](C)(C)C(C)(C)C)cc1 (stereo not drawn) [drawing 93] | 0.694 | 289 | 

More lines, main results first:

UVB (280-320 nm) max. abs [1] | UVB max. at λ [nm] [1] [nm] | Structure (SMILES) | further results
0.796 | 306.0 | COc1ccc(/C=C/C(=O)OCC2COC(C)(C)O2)cc1 (stereo not drawn) | 
0.881 | 302.0 | COc1ccc(/C=C/C(=O)OCC(O)CO)cc1 (stereo not drawn) | 
0.537 | 287.9 | O=C(c1ccccc1)c1ccc(OCC(O)CO)cc1O (stereo not drawn) | UVA (400-320 nm) max. abs [1]: 0.363; UVA max. at λ [nm] [1]: 327.5 nm
0.692 | 298.0 | CC12CCC(C(=O)/C1=C\c1ccc(CNCC(O)CO)cc1)C2(C)C (stereo not drawn) | 
0.711 | 296 | CN(Cc1ccc(/C=C2\C(=O)C3CCC2(C)C3(C)C)cc1)CC(O)CO (stereo not drawn) [3-(4-{[(2,3-Dihydroxypropyl)methylamino]methyl}benzylidene)-4,7,7-trimethylbicyclo[2.2.1]heptan-2-one] | 
0.107 | 300.67 | COc1ccc(/C=C/C(=O)OCC(=O)COC(=O)/C=C/c2ccc(OC)cc2)cc1 [drawing 73] | 
0.893 | 311.33 | COc1ccc(/C=C/C(=O)OCC(=O)CO)cc1 [drawing 74] | 
0.936 | 292.00 | COc1ccc(/C=C/C(=O)NCC(O)CO)cc1 (stereo not drawn) [drawing 75] | 
0.941 | 294.0 | COc1ccc(/C=C/C(=O)NCC(=O)CO)cc1 [drawing 81, N-(3-hydroxy-2-oxopropyl)-(E)-3-(4-methoxyphenyl)acrylamide] | 
0.947 | 301.0 | CN(C)c1ccc(C(=O)NCC(O)CO)cc1 (stereo not drawn) [drawing 82] | 
1.213 | 311.0 | CN(C)c1ccc(C(=O)OCC(=O)CO)cc1 [drawing 83, 3-Hydroxy-2-oxopropyl 4-dimethylaminobenzoate] | 
0.688 | 307.0 | CCCCC(CC)COc1ccc(/C=C/C(=O)NCC(O)CO)cc1 (stereo not drawn) [drawing 89, N-(2,3-dihydroxypropyl)-(E)-[4-(2-ethylhexyloxyphenyl)]acrylamide] | 
0.706 | 307.5 | CCCCC(CC)COc1ccc(/C=C/C(=O)NCC(=O)CO)cc1 (stereo not drawn) [drawing 90, N-(3-hydroxy-2-oxopropyl)-(E)-3-[4-(2-ethylhexyloxyphenyl)]acrylamide] | 
0.914 | 289 | COc1ccc(/C=C/C(=O)NCC(O)CO)cc1 (stereo not drawn) [drawing 94] | 
0.715 | 292 | COc1ccc(/C=C/C(=O)N(C)CC(O)CO)cc1 (stereo not drawn) [drawing 96] | 
